Read-outs that look alike come from different tables or passages of the source.
How the values were obtained:
H82 cells = experiment: cells; assay type: cell-based; conditions: Homo sapiens
Summary of the method: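 After 6 days' compound treatment at 37 °C (final DMSO 0.1%, RPMI1640/10% FBS), viable H82 cells were quantified by ATP-dependent CellTiter-Glo luminescence. Remaining activity was calculated against DMSO and medium wells, and a sigmoidal fit gave IC50.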

AURKA = target: T1, AURKA (Homo sapiens, UniProt O14965); assay type: cell-based
T1 construct: endogenous in cells; host or cells: Jurkat cells
T1 sequence (O14965 1-403): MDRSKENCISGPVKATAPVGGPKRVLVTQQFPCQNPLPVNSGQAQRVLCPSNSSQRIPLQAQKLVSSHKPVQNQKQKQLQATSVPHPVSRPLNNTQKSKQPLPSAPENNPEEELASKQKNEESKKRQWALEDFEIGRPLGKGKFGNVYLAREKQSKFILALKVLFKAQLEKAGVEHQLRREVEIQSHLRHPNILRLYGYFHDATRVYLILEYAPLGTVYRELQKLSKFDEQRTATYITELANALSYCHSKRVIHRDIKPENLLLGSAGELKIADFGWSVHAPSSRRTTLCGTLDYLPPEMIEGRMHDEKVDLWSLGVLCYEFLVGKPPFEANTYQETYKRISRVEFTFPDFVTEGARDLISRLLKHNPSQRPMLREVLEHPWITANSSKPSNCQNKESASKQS
Summary of the method: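 AURKA degradation read by western blot: band signal, fluorescent or chemiluminescent, curve-fitted to derive DC50. Cells were Jurkat, plated at 1×10^6 cells/500 µL with compound, then lysed and blotted onto nitrocellulose, primary antibody overnight at 4°C.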

[1] = NCI-H82, H82 cells, 4000 cells/well, CellTiter-Glo, read-out: IC50 in H82 Cells
[2] = 100 nM compound, Jurkat cells, 24 h, Table 2
[3] = 1 µM compound, Jurkat cells, 24 h, Table 2
[4] = NCI-H82, read-out: IC50 in H82 Cells

Cn1nc(N2CCC(=O)NC2=O)c2ccc(N3CCC4(CC3)CC(N3CCN(c5ccc(Nc6ncc7c(n6)-c6ccc(Cl)cc6C(c6c(F)cccc6F)=NC7)cc5)CC3)CO4)cc21 (stereo not drawn) [Compound A365]
IC50 (H82 cells; [1]): < 1000 nM
Percentage of AURKA Degradation Induced by 100 nM Compound in Jurkat Cells (AURKA; [2]): +++ (Degradation > 70%)
Percentage of AURKA Degradation Induced by 1 µM Compound in Jurkat Cells (AURKA; [3]): +++ (Degradation > 70%)

O=C1CCN(c2ccc(N3CCC(CN4CCN(C56CC(Nc7ncc8c(n7)-c7ccc(Cl)cc7C(c7c(F)cccc7F)=NC8)(C5)C6)CC4)C3)nc2)C(=O)N1 (stereo not drawn) [Compound A231]
IC50 (H82 cells; [1]): < 1000 nM
Percentage of AURKA Degradation Induced by 100 nM Compound in Jurkat Cells (AURKA; [2]): +++ (Degradation > 70%)
Percentage of AURKA Degradation Induced by 1 µM Compound in Jurkat Cells (AURKA; [3]): +++ (Degradation > 70%)

O=C1CCN(c2cnc(N3CCN(CC4(F)CN(c5ccc(Nc6ncc7c(n6)-c6ccc(Cl)cc6C(c6c(F)cccc6F)=NC7)cc5)C4)CC3)nc2)C(=O)N1 [Compound A286]
IC50 (H82 cells; [1]): < 1000 nM
Percentage of AURKA Degradation Induced by 100 nM Compound in Jurkat Cells (AURKA; [2]): ++ (30% < Degradation ≤ 70%)
Percentage of AURKA Degradation Induced by 1 µM Compound in Jurkat Cells (AURKA; [3]): ++ (30% < Degradation ≤ 70%)

COc1cccc(F)c1C1=NCc2cnc(Nc3ccc(N4CC(CN5CCN(c6ccc(N7CCC(=O)NC7=O)cn6)CC5)C4)cc3)nc2-c2ccc(Cl)cc21 [Compound A253]
IC50 (H82 cells; [1]): < 1000 nM
Percentage of AURKA Degradation Induced by 100 nM Compound in Jurkat Cells (AURKA; [2]): +++ (Degradation > 70%)
Percentage of AURKA Degradation Induced by 1 µM Compound in Jurkat Cells (AURKA; [3]): +++ (Degradation > 70%)

O=C1CCN(c2cncc(N3CC(CN4CCOc5ccc(Nc6ncc7c(n6)-c6ccc(Cl)cc6C(c6c(F)cccc6F)=NC7)cc5C4)C3)c2)C(=O)N1 [Compound A214]
IC50 (H82 cells; [1]): < 1000 nM
Percentage of AURKA Degradation Induced by 100 nM Compound in Jurkat Cells (AURKA; [2]): +++ (Degradation > 70%)
Percentage of AURKA Degradation Induced by 1 µM Compound in Jurkat Cells (AURKA; [3]): + (Degradation ≤ 30%)

Cc1nc(N2CCC3(CC2)CC(NC(=O)c2ccc(Nc4ncc5c(n4)-c4ccc(Cl)cc4C(c4c(F)cccc4F)=NC5)cc2)C3)ccc1N1CCC(=O)NC1=O [Compound A112]
IC50 (H82 cells; [1]): < 1000 nM
Percentage of AURKA Degradation Induced by 100 nM Compound in Jurkat Cells (AURKA; [2]): +++ (Degradation > 70%)
Percentage of AURKA Degradation Induced by 1 µM Compound in Jurkat Cells (AURKA; [3]): +++ (Degradation > 70%)

O=C1CCN(c2ccc(N3CC(N4CCN(Cc5ccc(Nc6ncc7c(n6)-c6ccc(Cl)cc6C(c6c(F)cccc6F)=NC7)cc5)CC4=O)C3)nc2)C(=O)N1 [Compound A276]
IC50 (H82 cells; [4]): < 1000 nM
Percentage of AURKA Degradation Induced by 100 nM Compound in Jurkat Cells (AURKA): ++ (key: +: Degradation ≤ 30%; ++: 30% < Degradation ≤ 70%; +++: Degradation > 70%)
Percentage of AURKA Degradation Induced by 1 µM Compound in Jurkat Cells (AURKA): ++ (key: +: Degradation ≤ 30%; ++: 30% < Degradation ≤ 70%; +++: Degradation > 70%)

O=C1CCN(c2ccc(N3CCC(CN4CC(=O)N(C56CC(Nc7ncc8c(n7)-c7ccc(Cl)cc7C(c7c(F)cccc7F)=NC8)(C5)C6)C(=O)C4)CC3)nc2)C(=O)N1 [Compound A283]
IC50 (H82 cells; [1]): < 1000 nM
Percentage of AURKA Degradation Induced by 100 nM Compound in Jurkat Cells (AURKA; [2]): +++ (Degradation > 70%)
Percentage of AURKA Degradation Induced by 1 µM Compound in Jurkat Cells (AURKA; [3]): +++ (Degradation > 70%)

Cc1ccc2c(c1)C(c1c(F)cccc1F)=NCc1cnc(Nc3ccc(C(=O)NC4CC5(CCN(c6ccc(N7CCC(=O)NC7=O)cn6)CC5)C4)cc3)nc1-2 [Compound A118]
IC50 (H82 cells; [1]): < 1000 nM
Percentage of AURKA Degradation Induced by 100 nM Compound in Jurkat Cells (AURKA; [2]): ++ (30% < Degradation ≤ 70%)
Percentage of AURKA Degradation Induced by 1 µM Compound in Jurkat Cells (AURKA; [3]): +++ (Degradation > 70%)

CP(C)(=O)c1cc(N2CCN(C(=O)C3CCN(c4ccc(Nc5ncc6c(n5)-c5ccc(Cl)cc5C(c5c(F)cccc5F)=NC6)cc4)CC3)CC2)ccc1N1CCC(=O)NC1=O [Compound A288]
IC50 (H82 cells; [1]): < 1000 nM
Percentage of AURKA Degradation Induced by 100 nM Compound in Jurkat Cells (AURKA; [2]): + (Degradation ≤ 30%)
Percentage of AURKA Degradation Induced by 1 µM Compound in Jurkat Cells (AURKA; [3]): + (Degradation ≤ 30%)

O=C1CCN(c2ccc(N3CCC(N4CCN(C56CC(Nc7ncc8c(n7)-c7ccc(Cl)cc7C(c7c(F)cccc7F)=NC8)(C5)C6)CC4)C3)nc2)C(=O)N1 (stereo not drawn) [Compound A227]
IC50 (H82 cells; [1]): < 1000 nM
Percentage of AURKA Degradation Induced by 100 nM Compound in Jurkat Cells (AURKA; [2]): ++ (30% < Degradation ≤ 70%)
Percentage of AURKA Degradation Induced by 1 µM Compound in Jurkat Cells (AURKA; [3]): + (Degradation ≤ 30%)

O=C1CCN(c2ccc(N3CCC(F)(CN4CC(=O)N(C56CC(Nc7ncc8c(n7)-c7ccc(Cl)cc7C(c7c(F)cccc7F)=NC8)(C5)C6)C(=O)C4)CC3)nc2)C(=O)N1 [Compound A294]
IC50 (H82 cells; [1]): < 1000 nM
Percentage of AURKA Degradation Induced by 100 nM Compound in Jurkat Cells (AURKA; [2]): ++ (30% < Degradation ≤ 70%)
Percentage of AURKA Degradation Induced by 1 µM Compound in Jurkat Cells (AURKA; [3]): ++ (30% < Degradation ≤ 70%)

CC(C1CCN(c2ccc(N3CCC(=O)NC3=O)cn2)CC1)N1CCN(C23CC(Nc4ncc5c(n4)-c4ccc(Cl)cc4C(c4c(F)cccc4F)=NC5)(C2)C3)C(=O)C1 (stereo not drawn) [Compound A302]
IC50 (H82 cells; [1]): < 1000 nM
Percentage of AURKA Degradation Induced by 100 nM Compound in Jurkat Cells (AURKA; [2]): +++ (Degradation > 70%)
Percentage of AURKA Degradation Induced by 1 µM Compound in Jurkat Cells (AURKA; [3]): +++ (Degradation > 70%)

O=C1CCN(c2ccc(N3CCC(N4CCN(c5ccc(Nc6ncc7c(n6)-c6ccc(Cl)cc6C(c6c(F)cccc6F)=NC7)cc5)C(=O)C4)C3)nc2)C(=O)N1 (stereo not drawn) [Compound A166]
IC50 (H82 cells; [1]): < 1000 nM
Percentage of AURKA Degradation Induced by 100 nM Compound in Jurkat Cells (AURKA; [2]): +++ (Degradation > 70%)
Percentage of AURKA Degradation Induced by 1 µM Compound in Jurkat Cells (AURKA; [3]): ++ (30% < Degradation ≤ 70%)

O=C1CCN(c2ccc(N3CCC(N4CCN(c5ccc(Nc6ncc7c(n6)-c6ccc(Cl)cc6C(c6nccs6)=NC7)cc5)C(=O)C4)CC3)nc2)C(=O)N1 [Compound A282]
IC50 (H82 cells; [4]): < 1000 nM
Percentage of AURKA Degradation Induced by 100 nM Compound in Jurkat Cells (AURKA): +++ (key: +: Degradation ≤ 30%; ++: 30% < Degradation ≤ 70%; +++: Degradation > 70%)
Percentage of AURKA Degradation Induced by 1 µM Compound in Jurkat Cells (AURKA): +++ (key: +: Degradation ≤ 30%; ++: 30% < Degradation ≤ 70%; +++: Degradation > 70%)

N#CC1CN(C2CCN(c3ccc(N4CCC(=O)NC4=O)cn3)CC2)CCN1c1ccc(Nc2ncc3c(n2)-c2ccc(Cl)cc2C(c2c(F)cccc2F)=NC3)cc1 (stereo not drawn) [Compound A251]
IC50 (H82 cells; [1]): < 1000 nM
Percentage of AURKA Degradation Induced by 100 nM Compound in Jurkat Cells (AURKA; [2]): +++ (Degradation > 70%)
Percentage of AURKA Degradation Induced by 1 µM Compound in Jurkat Cells (AURKA; [3]): +++ (Degradation > 70%)

O=C1CCN(c2ccc(N3CCC4(CC3)CN(C3CCN(c5ccc(Nc6ncc7c(n6)-c6ccc(Cl)cc6C(c6c(F)cccc6F)=NC7)cc5)CC3)CCO4)nc2)C(=O)N1 [Compound A346]
IC50 (H82 cells; [4]): < 1000 nM
Percentage of AURKA Degradation Induced by 100 nM Compound in Jurkat Cells (AURKA): +++ (key: +: Degradation ≤ 30%; ++: 30% < Degradation ≤ 70%; +++: Degradation > 70%)
Percentage of AURKA Degradation Induced by 1 µM Compound in Jurkat Cells (AURKA): +++ (key: +: Degradation ≤ 30%; ++: 30% < Degradation ≤ 70%; +++: Degradation > 70%)

O=C1CCN(c2ccc(N3CCC(CN4CCN(C56CC(Nc7ncc8c(n7)-c7ccc(Cl)cc7C(c7c(F)cccc7F)=NC8)(C5)C6)C(=O)C4)CC3)nc2)C(=O)N1 [Compound A250]
IC50 (H82 cells; [1]): < 1000 nM
Percentage of AURKA Degradation Induced by 100 nM Compound in Jurkat Cells (AURKA; [2]): +++ (Degradation > 70%)
Percentage of AURKA Degradation Induced by 1 µM Compound in Jurkat Cells (AURKA; [3]): +++ (Degradation > 70%)

O=C1CCN(c2ccc(N3CC(CN4CCN(C(=O)C56CC(Nc7ncc8c(n7)-c7ccc(Cl)cc7C(c7c(F)cccc7F)=NC8)(C5)C6)CC4)C3)nc2)C(=O)N1 [Compound A279]
IC50 (H82 cells; [1]): < 1000 nM
Percentage of AURKA Degradation Induced by 100 nM Compound in Jurkat Cells (AURKA; [2]): +++ (Degradation > 70%)
Percentage of AURKA Degradation Induced by 1 µM Compound in Jurkat Cells (AURKA; [3]): +++ (Degradation > 70%)

O=C1CCN(c2ccc(N3CC4COCC(C3)N4C3CC4(CCN(c5ccc(Nc6ncc7c(n6)-c6ccc(Cl)cc6C(c6c(F)cccc6F)=NC7)cc5)CC4)C3)nc2)C(=O)N1 [Compound A360]
IC50 (H82 cells; [1]): < 1000 nM
Percentage of AURKA Degradation Induced by 100 nM Compound in Jurkat Cells (AURKA; [2]): +++ (Degradation > 70%)
Percentage of AURKA Degradation Induced by 1 µM Compound in Jurkat Cells (AURKA; [3]): +++ (Degradation > 70%)

N#Cc1nc(N2CCN(C(=O)C3CCN(c4ccc(Nc5ncc6c(n5)-c5ccc(Cl)cc5C(c5c(F)cccc5F)=NC6)cc4)CC3)CC2)ccc1N1CCC(=O)NC1=O [Compound A323]
IC50 (H82 cells; [1]): < 1000 nM
Percentage of AURKA Degradation Induced by 100 nM Compound in Jurkat Cells (AURKA; [2]): +++ (Degradation > 70%)
Percentage of AURKA Degradation Induced by 1 µM Compound in Jurkat Cells (AURKA; [3]): +++ (Degradation > 70%)

O=C1CCN(c2ccc(N3CCC(O)(CN4CCN(c5ccc(Nc6ncc7c(n6)-c6ccc(Cl)cc6C(c6c(F)cccc6F)=NC7)cc5)CC4)CC3)nc2)C(=O)N1 [Compound A264]
IC50 (H82 cells; [1]): < 1000 nM
Percentage of AURKA Degradation Induced by 100 nM Compound in Jurkat Cells (AURKA; [2]): +++ (Degradation > 70%)
Percentage of AURKA Degradation Induced by 1 µM Compound in Jurkat Cells (AURKA; [3]): +++ (Degradation > 70%)

— patent EP4818168A1, “FUSED RING COMPOUND, PHARMACEUTICAL COMPOSITION THEREOF AND USE THEREOF” (priority 2023, dated 2025)
